The values that follow come from PubChem BioAssay AID1963863 (Molecular Pharmacology Branch, DTP, NCI, 2024).

The term viability, T/C denotes the ratio of treated to control. As a reminder, the pIC50 is the IC50 on a negative log10 scale, so that one unit is a factor of ten. Usually IC50 stands for the midpoint of a concentration-inhibition curve.

pIC50: −log10 of the molar value. Several values for one entry are separate records, joined by “and”; a condition that tells them apart may be missing. Equal values may be shown once. Some results are limits rather than exact numbers.

The assay relates to 931267-113-T-J1-PDC KRAS spheroid with HUVEC/MSC, viability. Kind of assay: Anticancer human tumor 931267-113-T-J1-PDC patient-derived colon adenocarcinoma cell line growth inhibition [KRAS2]. The conditions noted are these: for viability, T/C: stronger effect = lower value. The text has this: Multicellular complex tumor spheroid response to RAS pathway inhibitors in combination with a targeted agents in patient-derived cell lines with oncogenic KRAS variants from multiple cancer types
A high-throughput screen of multi-cell type tumor spheroids was designed to identify active combinations of targeted small molecules and KRAS pathway inhibitors. Complex spheroids include a stromal component modeled by human endothelial cells (HUVEC) and fibroblasts modeled by human mesenchymal stem cells (MSCs). The concentration ranges selected for each drug and investigational agent were based upon clinically achievable concentrations if the clinical Cmax of the agent was known.
Compounds. The drugs and investigational agents: BI-3406 (NSC825286), BAY-293 (NSC824723), batoprotafib (TNO155; NSC825523), sotorasib (AMG 510; NSC818433), MRTX1257 (NSC819558), elimusertib (BAY 1895344; NSC800525), molibresib (GSK525762; NSC774829), temuterkib (LY3214996; NSC803410), venetoclax (NSC766270), alisertib (NSC759677), olaparib (NSC753686), talazoparib (NSC767125), erdafitinib (NSC781556), ipatasertib (NSC767898), cabozantinib (NSC761068), nintedanib (NSC756659), abemaciclib (NSC768073), docetaxel (NSC628503), trametinib (NSC758246), and sapanisertib (NSC764658) were obtained from the National Cancer Institute (NCI) Developmental Therapeutics Program Chemical Repository. The FDA-approved anticancer drug set is available from the Developmental Therapeutics Program. […] The stock solutions were prepared in dimethyl sulfoxide (DMSO, Sigma-Aldrich, St. Louis, MO, cat. D2650) at 800-fold the tested concentration and stored at -70 degrees C prior to their use. All drugs and investigational agents were tested over a range starting from a high concentration at or near the clinical Cmax and decreasing in half-log increments. If the clinical Cmax for an agent had not been determined, the highest concentration tested was 10 microM.
Cell Culture. All cells were maintained in an incubator at 37 degrees C and 5% CO2 with 95% humidity. The PDC lines were cultured according to standard operating procedures established by the NCI PDMR (https://pdmr.cancer.gov/sops/default.htm). Briefly, all PDCs were thawed and cultured in Matrigel-coated flasks prepared with a working solution of 1X Ham's F-12 nutrient mix, without supplementation (Invitrogen, Waltham, MA, cat. 11765054), 100 U/mL penicillin-streptomycin (Invitrogen, cat. 15140122), and 2.5% Matrigel (Corning Inc., Corning, NY, cat. 354248) for the first three passages. All PDCs were cultured in complete DMEM/F-12 media containing advanced DMEM/F-12 (Invitrogen, cat. 12634028), 4.9% defined fetal bovine serum, heat inactivated (HyClone Laboratories Inc., Logan, UT, cat. SH30070.03HI), 389 ng/mL hydrocortisone (Sigma-Aldrich, cat. H4001), 9.7 ng/mL human EGF recombinant protein (Invitrogen, cat. PHG0313), 23.4 microg/mL adenine (Sigma-Aldrich, cat. A2786), 97.3 U/mL penicillin-streptomycin (Invitrogen, cat. 15140122), 1.9 mM L-glutamine (Invitrogen, cat. 25030081), and 9.7 microM Y-27632 dihydrochloride (Tocris Bioscience, Bristol, United Kingdom, cat. 1254). The PDCs were cultured in complete DMEM/F12 media without 9.7 microM Y-27632 dihydrochloride for at least two passages prior to the screen. The established cell line HOP-62 was cultured in RPMI 1640 medium, HEPES (Invitrogen, cat. 22400105) with 10% defined fetal bovine serum (HyClone Laboratories Inc., cat. SH30070.03) and 2 mM L-glutamine (Invitrogen, cat. 25030081). The pooled donor HUVEC were cultured in endothelial cell growth medium 2 (PromoCell, Heidelberg, Germany, cat. C-22011) and the hMSC were cultured in mesenchymal stem cell growth medium 2 (PromoCell, cat. C-28009). For all experiments, HUVEC and hMSC were used at passages </=5, while the malignant cell lines were used at passages </=15. […]

[1] abbreviates: compound alone, run of 08/19/2021.
[2] abbreviates: compound alone, run of 08/26/2021.
Where [3] appears, read: compound alone, run of 09/02/2021.
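Also: compound exposure lasted 7 days before the readout.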

As to `C=CC(=O)N1CCN(c2nc(=O)n(-c3c(C)ccnc3C(C)C)c3nc(-c4c(O)cccc4F)c(F)cc23)C(C)C1` (stereo unspecified), the viability, T/C (compound 0.1 µM) was 92.7% [middle of 17 runs]. In addition, the pIC50 runs as follows: under setting [1], below 5.00; under setting [2], below 5.00; under setting [3], below 5.00.

For the compound `CC(=O)Nc1cccc(-n2c(=O)n(C3CC3)c(=O)c3c(Nc4ccc(I)cc4F)n(C)c(=O)c(C)c32)c1`, the viability, T/C runs as follows: (compound 0.0001 µM) 92.7% [middle of 5 runs]; (compound 0.000316 µM) 89.7% [middle of 5 runs]; (compound 0.001 µM) 84.2% [middle of 5 runs]; (compound 0.00316 µM) 64.2% [middle of 5 runs]; (compound 0.01 µM) 55% [middle of 5 runs]; (compound 0.0316 µM) 14% [middle of 5 runs]. Moreover, the IC50 (curve of compound) was 9.89 nM [middle of 5 runs].

Take `CC(=O)OC12COC1CC(O)C1(C)C(=O)C(O)C3=C(C)C(OC(=O)C(O)C(NC(=O)OC(C)(C)C)c4ccccc4)CC(O)(C(OC(=O)c4ccccc4)C21)C3(C)C` (stereo unspecified): the viability, T/C runs as follows: (compound 0.0316 µM) 91.1% [middle of 5 runs]; (compound 0.1 µM) 84.7% [middle of 5 runs]; (compound 0.316 µM) 86.2% [middle of 5 runs]. In addition, under “curve of compound”, the pIC50 is below 5.50.

`CC(C)NCC(C(=O)N1CCN(c2ncnc3c2C(C)CC3O)CC1)c1ccc(Cl)cc1` (stereo unspecified): the viability, T/C (compound 0.0316 µM) was 91.2% [middle of 5 runs]; the viability, T/C (compound 0.316 µM) was 89.6% [middle of 5 runs]; the viability, T/C (compound 1 µM) is 78.3% [middle of 5 runs]; the viability, T/C (compound 3.16 µM) was 65.2% [middle of 5 runs]; the viability, T/C (compound 10 µM) was 42.5% [middle of 5 runs].

`CC(C)n1nc(-c2ccc3oc(N)nc3c2)c2c(N)ncnc21`: the viability, T/C runs as follows: (compound 0.000316 µM) 90.9% [middle of 5 runs]; (compound 0.001 µM) 92.8% [middle of 5 runs]; (compound 0.00316 µM) 66.5% [middle of 5 runs]; (compound 0.0316 µM) 26.9% [middle of 5 runs]; (compound 0.1 µM) 23.9% [middle of 5 runs].

For the compound `CC1(C)CCC(CN2CCN(c3ccc(C(=O)NS(=O)(=O)c4ccc(NCC5CCOCC5)c([N+](=O)[O-])c4)c(Oc4cnc5[nH]ccc5c4)c3)CC2)=C(c2ccc(Cl)cc2)C1`, the viability, T/C by setting is: (compound 0.0316 µM) 99.5% [middle of 5 runs]; (compound 0.1 µM) 89.5% [middle of 5 runs]; (compound 0.316 µM) 91.4% [middle of 5 runs]; (compound 1 µM) 96.9% [middle of 5 runs]; (compound 3.16 µM) 33.6% [middle of 5 runs]; (compound 10 µM) 10.7% [middle of 5 runs]. Also, the half-inhibitory concentration (IC50) (curve of compound) was 2.34 µM [middle of 5 runs].

With `CC1COCCN1c1cc(-c2ccnn2C)c2ccnc(-c3ccn[nH]3)c2n1` (stereo unspecified), the viability, T/C is, setting by setting: (compound 0.1 µM) 23.9% [middle of 5 runs]; (compound 0.316 µM) 20.2% [middle of 5 runs]; (compound 1 µM) 21.8% [middle of 5 runs]; (compound 3.16 µM) 20.6% [middle of 5 runs]. The IC50 (curve of compound) is 54.7 nM [middle of 5 runs].

For the compound `CC1OCC2(CCN(c3cnc(Sc4ccnc(N)c4Cl)c(N)n3)CC2)C1N` (stereo unspecified), the viability, T/C (compound 0.0316 µM) was 97.1% and 83.5% and 83%. Also, the pIC50 reads like this: under setting [1], below 5.00; under setting [2], below 5.00; under setting [3], below 5.00; (curve of compound) below 5.00.

Turning to `CCN1CCN(Cc2ccc(Nc3ncc(F)c(-c4cc(F)c5nc(C)n(C(C)C)c5c4)n3)nc2)CC1`, the viability, T/C (compound 0.00316 µM) was 85.5% [middle of 5 runs]; the viability, T/C (compound 0.01 µM) is 88.8% [middle of 5 runs]; the viability, T/C (compound 0.0316 µM) is 70.4% [middle of 5 runs]; the viability, T/C (compound 0.1 µM) was 70% [middle of 5 runs]; the viability, T/C (compound 0.316 µM) was 65% [middle of 5 runs]; the viability, T/C (compound 1 µM) is 48.4% [middle of 5 runs]. Where the note is “curve of compound”, the negative-log IC50 (pIC50) was < 6.00 and 6.23 and 6.02.

Take `CCNC(=O)CC1N=C(c2ccc(Cl)cc2)c2cc(OC)ccc2-n2c(C)nnc21` (stereo unspecified): the viability, T/C reads like this: (compound 0.0316 µM) 92.4% [middle of 5 runs]; (compound 0.1 µM) 83% [middle of 5 runs]; (compound 0.316 µM) 72.3% [middle of 5 runs]; (compound 1 µM) 60.5% [middle of 5 runs]; (compound 3.16 µM) 47.1% [middle of 5 runs]; (compound 10 µM) 40.2% [middle of 5 runs].

With `CN(C)C/C=C/C(=O)Nc1cc2c(Nc3ccc(F)c(Cl)c3)ncnc2cc1O[C@H]1CCOC1`, the viability, T/C by setting is: (compound 0.000316 µM) 94.5% [middle of 5 runs]; (compound 0.01 µM) 79.1% [middle of 5 runs]; (compound 0.1 µM) 79% [middle of 5 runs]. For the same compound, the pIC50 (curve of compound) is below 7.00.

With `COC(=O)c1ccc2c(C(=Nc3ccc(N(C)C(=O)CN4CCN(C)CC4)cc3)c3ccccc3)c(O)[nH]c2c1`, the viability, T/C (compound 0.0316 µM) is 85.8% [middle of 5 runs]; the viability, T/C (compound 0.1 µM) was 78.5% [middle of 5 runs]; the viability, T/C (compound 0.316 µM) was 69.6% [middle of 5 runs]; the viability, T/C (compound 1 µM) was 59.2% [middle of 5 runs]; the viability, T/C (compound 3.16 µM) is 0.6% [middle of 4 runs]; the viability, T/C (compound 10 µM) is 0.39% [middle of 4 runs]. For the same compound, the IC50 (curve of compound) is 1.2 µM [middle of 5 runs].

`COc1cc(Nc2ncc3c(n2)-c2ccc(Cl)cc2C(c2c(F)cccc2OC)=NC3)ccc1C(=O)O`: the viability, T/C (compound 0.0316 µM) was 83.6% [middle of 5 runs]; the viability, T/C (compound 0.1 µM) was 79.6% [middle of 5 runs]; the viability, T/C (compound 0.316 µM) is 79.4% [middle of 5 runs]; the viability, T/C (compound 1 µM) is 83.3% [middle of 5 runs]; the viability, T/C (compound 3.16 µM) is 85.9% [middle of 5 runs]; the viability, T/C (compound 10 µM) was 72.5% [middle of 5 runs]. The pIC50 (curve of compound) is below 5.00.

For `Cn1nccc1Nc1nccc(-c2cc3c(s2)C(C)(C)N(CCN2CCOCC2)C3=O)n1`, the viability, T/C runs as follows: (compound 0.0316 µM) 91% [middle of 5 runs]; (compound 0.316 µM) 68.6% [middle of 5 runs]; (compound 1 µM) 30.6% [middle of 5 runs]; (compound 3.16 µM) 7.98% [middle of 5 runs]; (compound 10 µM) 4.32% [middle of 5 runs]. In addition, the IC50 (curve of compound) was 574 nM [middle of 4 runs].

On to `Cn1ncnc1[C@H]1c2n[nH]c(=O)c3cc(F)cc(c23)N[C@@H]1c1ccc(F)cc1`, for which the viability, T/C (compound 0.000316 µM) was 102% [middle of 5 runs]; the viability, T/C (compound 0.001 µM) is 97.8% [middle of 5 runs]; the viability, T/C (compound 0.00316 µM) was 98.9% [middle of 5 runs]; the viability, T/C (compound 0.01 µM) was 88.3% [middle of 5 runs]; the viability, T/C (compound 0.0316 µM) was 94.4% [middle of 5 runs]. Under “curve of compound”, the pIC50 is below 7.00.

As to `O=C(c1cc(Cc2n[nH]c(=O)c3ccccc23)ccc1F)N1CCN(C(=O)C2CC2)CC1`, the viability, T/C is 83% [middle of 5 runs] (compound 0.0316 µM); 93% [middle of 5 runs] (compound 0.1 µM); 87.8% [middle of 5 runs] (compound 0.316 µM); 88.3% [middle of 5 runs] (compound 3.16 µM); 80.5% [middle of 5 runs] (compound 10 µM). Under “curve of compound”, the negative-log IC50 (pIC50) was below 5.00.
